According to patent publication US20070043000A1, “Immunosuppresive effects of pteridine derivatives” (priority 2003, published 2007):
Read-outs that look alike come from different tables or passages of the source.

How the values were obtained:
[1] = test system: IL-1 beta production by PBMC; assay: IL-1 beta assay, LPS-stimulated PBMC, sandwich ELISA; assay type: cell-based, human
Procedure: (§1) All reagents were dissolved in 0.5 ml dimethylsulfoxide (hereinafter referred as DMSO) and further diluted in culture medium before use for the following in vitro experiments. The commercially available culture medium consisted of RPMI-1640+10% foetal calf serum (FCS). Peripheral blood mononuclear cells (herein referred as PBMC), in response to stimulation by lipopolysaccharide (LPS), a gram-negative bacterial endotoxin, produce various […], in particular human TNF-alpha and II-1 beta. The inhibition of the activation of PBMC can be measured by the level of suppression of the production of TNF-alpha or IL-1 beta by PBMC in response to stimulation by LPS. Such inhibition measurement was performed as follows: PBMC were isolated from heparinized peripheral blood (Buffy coat) by density gradient centrifugation. LPS is then added to the PMBC suspension in complete medium (10^6 cells/ml) at a final concentration of 1 μg/ml. The compound to be tested was added at different dilution levels, and the cells were incubated at 37° C. for 72 hours. The supernatants were collected, and TNF-alpha or II-1 beta concentrations were measured with respectively an anti-TNF antibody or an anti-IL-1 beta antibody in a sandwich ELISA. The percent inhibition was calculated as: % inhibition=(pg/ml in sample−pg/ml min.)/(pg/ml max.−pg/ml min.)−1 wherein: min.: pg/ml in culture medium without test compound, and • max.: pg/ml in culture medium+LPS without test compound.

[2] = test system: TNF-alpha production by PBMC; assay: TNF-alpha assay, LPS-stimulated PBMC, sandwich ELISA; assay type: cell-based, human
Procedure: as §1

[3] = test system: murine experimental allergic encephalomyelitis; assay: Murine multiple sclerosis model (experimental allergic encephalomyelitis); assay type: in vivo; details: animals treated in the murine EAE model, 20 mg/kg/day
[4] = test system: peripheral blood mononuclear cells (PBMC); assay: Mixed lymphocyte reaction (MLR) test; assay type: cell-based, human
Procedure: All reagents were dissolved in 0.5 ml dimethylsulfoxide (hereinafter referred as DMSO) and further diluted in culture medium before use for the following in vitro experiments. The commercially available culture medium consisted of RPMI-1640+10% foetal calf serum (FCS). Peripheral blood mononuclear cells (hereinafter referred as PBMC) were isolated from heparinized peripheral blood by density gradient centrifugation over Lymphoprep (Nycomed, Maorstua, Norway). Allogeneic PBMC or […]-Barr Virus-transformed human B cells [commercially available under the trade name RPMI1788 (ATCC name CCL156)] which strongly express B7-1 and B7-2 antigens were used as stimulator cells after irradiation with 30 Gy. MLR was performed in triplicate wells. After 5 days incubation at 37° C., 1 μCi [^3H]-thymidine was added to each cup. After a further 16 hours incubation, cells were harvested and counted in a β-counter. Inhibition of proliferation by a compound (drug) described in some of the previous examples was counted using the formula: [formula] wherein cpm is the thymidine count per minute. TNF-Alpha and IL-1 Beta Assays

[5] = test system: lymphocytes; details: as disclosed in WO 00/45800; cited from earlier work
[6] = test system: CD3; details: as disclosed in WO 00/45800; cited from earlier work
[7] = test system: CD 28; details: as disclosed in WO 00/45800; cited from earlier work
[8] = test system: murine experimental allergic encephalomyelitis; details: mouse, in vivo; cited from earlier work
[9] = Table 7, same conditions as example 26, read-out: IL1β IC50
[10] = Table 7, same conditions as example 26, read-out: TNFα IC50
[11] = Table 7, same conditions as example 26

| Structure (SMILES) | IC50 [1, 9] [µM] | IC50 [2, 10] [µM] | IC50 [4, 11] [µM] | further results |
| --- | --- | --- | --- | --- |
| Cn1c(=O)[nH]c(=O)c2nc(-c3ccc(F)cc3)c(Cl)nc21 [Example 42, 7-chloro-6-(4-fluorophenyl)-1-methyl-lumazine] | 0.7 | 4.7 | 4.8 | sign of toxicity [3]: did not show any sign of toxicity |
| Cn1c(=O)n(CCCC(=O)OC(C)(C)C)c(=O)c2nc(-c3ccccc3)c(Cl)nc21 [Example 89, 7-chloro-3-(t-butyl butyrate)-1-methyl-6-phenyl-lumazine] | 2.1 | 5.6 | 4.2 |  |
| Cn1c(=O)n(CCCC#N)c(=O)c2nc(-c3ccccc3)c(Cl)nc21 [Example 67, 3-butyronitrile-7-chloro-1-methyl-6-phenyl-lumazine] | 0.6 | 0.7 | 4.8 |  |
| Cn1c(=O)c2nc(-c3ccccc3)c(Cl)nc2n(CCO)c1=O [Example 62, 7-chloro-1-(2-hydroxyethyl)-3-methyl-6-phenyl-lumazine] | 0.6 | 0.6 | 2.5 |  |
| CC(C)OC(=O)CCCn1c(=O)c2nc(-c3ccccc3)c(Cl)nc2n(C)c1=O [Example 87, 7-chloro-3-(isopropyl 4-butyrate)-1-methyl-6-phenyl-lumazine] | 2.8 | 6.1 | 5.4 |  |
| O=c1[nH]c(=O)n(-c2ccccc2)c2nc(Cl)c(-c3ccccc3)nc12 [Example 17, 1,6-diphenyl-7-chloro-lumazine] |  |  |  | IC50 ([1]; Table 2, LPS 1 μg/ml, 72 hours, read-out: IL-1 IC50): 0.2 µM; IC50 ([2]; Table 2, LPS 1 μg/ml, 72 hours, read-out: TNF IC50): 0.8 µM; IC50 ([4]; Table 2, [3H]-thymidine incorporation after 5 days incubation): 3 µM |
| COc1ccc(-c2nc3c(nc2C(=O)c2ccccc2)c(=O)n(C)c(=O)n3C)cc1 [1,3-dimethyl-6-benzoyl-7-(4-methoxyphenyl)lumazine] |  |  |  | result in Mixed Lymphocyte Reaction test [5]: poor results; result in CD3 assay [6]: poor results; result in CD 28 assay [7]: poor results |
| Cn1c(=O)n(CCCC(=O)O)c(=O)c2nc(-c3ccccc3)c(Cl)nc21 [Example 85, 7-chloro-3-(n-butyric acid)-1-methyl-6-phenyl-lumazine] | 3.9 | 6.1 | 5 |  |
| Cn1c(=O)n(CCO)c(=O)c2nc(-c3ccccc3)c(Cl)nc21 [Example 57, 7-chloro-3-(2-hydroxyethyl)-1-methyl-6-phenyl-lumazine] | 0.7 | 0.4 | 5 |  |
| Cn1c(=O)n(CCc2ccccc2)c(=O)c2nc(-c3ccccc3)c(Cl)nc21 [Example 58, 7-chloro-3-(2-phenylethyl)-1-methyl-6-phenyl-lumazine] | 0.5 | 5.5 | 5.6 |  |
| Cn1c(=O)c2nc(-c3ccccc3)c(Cl)nc2n(Cc2ccccc2)c1=O [Example 61, 1-benzyl-7-chloro-3-methyl-6-phenyl-lumazine] | 0.5 | 0.7 | 3.7 |  |
| CCCCOC(=O)NCCn1c(=O)c2nc(-c3ccccc3)c(Cl)nc2n(C)c1=O [Example 75, 3-(2-butyloxycarbonyl-aminoethyl)-7-chloro-1-methyl-6-phenyl-lumazine] | 0.7 | 3.5 | 5.1 |  |
| CCOC(=O)CCCn1c(=O)c2nc(-c3ccc(OC)c(OC)c3)c(Br)nc2n(C)c1=O [Example 79, 7-bromo-6-(3,4-dimethoxyphenyl)-3-(ethylbutyrate)-1-methyl-lumazine] | 0.2 | 0.7 | 4.7 |  |
| COc1cccc(-c2nc3c(=O)[nH]c(=O)n(C)c3nc2Cl)c1 [Example 43, 7-chloro-6-(3-methoxyphenyl)-1-methyl-lumazine] | 2 | 3.7 | 4.9 |  |
| COc1ccc(-c2nc3c(=O)n(C)c(=O)n(C)c3nc2Cl)cc1 [Example 76, 7-chloro-1,3-dimethyl-6-(4-methoxyphenyl)-lumazine] | 0.6 | 0.6 | 4.5 |  |
| O=C1c2c(O)ccc(O)c2C(=O)c2c(NCCNCCO)ccc(NCCNCCO)c21 [mitoxantrone] |  |  |  | heart and kidney toxicity [8]: induces heart and kidney toxicity |
| COc1ccc(-c2nc3c(=O)n(CCN4CCOCC4)c(=O)n(C)c3nc2Br)cc1OC [Example 82, 7-bromo-1-methyl-3-(2-morpholinoethyl)-6-(3,4dimethoxyphenyl)-lumazine] | 5.7 | 10 | 4.6 |  |
| Cn1c(=O)c2nc(-c3ccccc3)c(Cl)nc2n(CCc2ccccc2)c1=O [Example 60, 7-chloro-1-(2-phenylethyl)-3-methyl-6-phenyl-lumazine] | 4.1 | 5.8 | 3.5 |  |
| CCn1c(=O)n(CCCC(=O)O)c(=O)c2nc(-c3ccccc3)c(Cl)nc21 [Example 86, 7-chloro-3-(n-butyric acid)-1-ethyl-6-phenyl-lumazine] | 2.5 | 8.4 | 4.6 |  |
| CCOC(=O)CCCn1c(=O)c2nc(-c3ccc(OC)cc3)c(Cl)nc2n(C)c1=O [Example 73, 7-chloro-3-(ethyl butyrate)-1-methyl-6-(4-methoxyphenyl)-lumazine] | 0.5 | 0.6 | 4.9 |  |
| COc1cccc(OC)c1-c1nc2c(=O)[nH]c(=O)n(C)c2nc1Cl [Example 44, 7-chloro-(2,6-dimethoxyphenyl)-1-methyl-lumazine] | 0.5 | 5.9 | 4.9 |  |
| CCOC(=O)CCCn1c(=O)c2nc(-c3ccccc3)c(Cl)nc2n(CC)c1=O [Example 68, 7-chloro-1-ethyl-3-(ethyl butyrate)-6-phenyl-lumazine] | 0.6 | 3.1 | 6.8 |  |
| COc1ccc(-c2nc3c(=O)n(CCO)c(=O)n(C)c3nc2Cl)cc1OC [Example 64, 7-chloro-6-(3,4-dimethoxyphenyl)-3-(2-hydroxyethyl)-1-methyl-lumazine] | 0.5 | 0.7 | 5.7 |  |
| Cn1c(=O)[nH]c(=O)c2nc(-c3ccccc3Cl)c(Cl)nc21 [Example 45, 7-chloro-(2-chlorophenyl)-1-methyl-lumazine] | 0.3 | 2.3 | 3.9 |  |
| CCOC(=O)CCCn1c(=O)c2nc(-c3ccc(OC)c(OC)c3)c(Cl)nc2n(C)c1=O [Example 63, 7-chloro-6-(3,4-dimethoxyphenyl)-3-(ethyl butyrate)-1-methyl-lumazine] | 0.9 | 0.6 | 5.7 |  |
| CCOC(=O)CCCn1c(=O)c2nc(-c3ccccc3)c(Cl)nc2n(-c2ccccc2)c1=O [Example 65, 7-chloro-1,6-diphenyl-3-(ethyl butyrate)-lumazine] | 0.5 | 0.8 | 3.8 |  |
| COc1ccc(-c2nc3c(=O)[nH]c(=O)n(C)c3nc2Cl)cc1OC [Example 41, 7-chloro-6-(3,4-dimethoxyphenyl)-1-methyl-lumazine] | 0.7 | 1.7 | 5.1 |  |
| COc1ccc(-c2nc3c(=O)[nH]c(=O)n(C)c3nc2Br)cc1 [Example 51, 7-bromo-6-(4-methoxyphenyl)-1-methyl-lumazine] | 5.7 | 4.6 | 3.6 |  |
